Measured values from US20140242590A1, “FLT3 MUTATIONS ASSOCIATED WITH DRUG RESISTANCE IN AML PATIENTS HAVING ACTIVATING MUTATIONS IN FLT3” (THE REGENTS OF THE UNIVERSITY OF CALIFORNIA, priority 2011, published 2014).

Columns and labels:
[1] = test system: Ba/F3 cells expressing FLT3-ITD mutant isoforms; test: Cell-viability assay of Ba/F3 populations stably expressing FLT3-ITD mutant isoforms; format: cell-based; settings: 48 hours
Method: Stable Ba/F3 lines were generated by using retroviral spinfection with the appropriate mutated plasmid as outlined above, with the exception of the exclusion of polybrene. At 48 h post-infection, puromycin was added to infected cells at a concentration of 4 μg/mL. Cells were selected in the presence of puromycin for 7-10 days and subsequently IL-3 was washed twice from the cells with media and cells were selected in RPMI medium 1640+10% FCS in the absence of IL-3. Exponentially growing BaiF3 cells (5×10^4) were plated in each well of a 24-well dish with 1 ml of RPMI 1640+10% FCS containing the appropriate concentration of drug as indicated in triplicate. Cells were allowed to expand for 2 days and were counted by using a Vi-cell XR automated cell viability analyzer (Beckman Coulter). The mean number of viable cells at varying concentrations of drug was normalized to the median number of viable cells in the no-drug sample for each mutant. Error bars represent the standard deviation. Numerical IC50 values were generated using non-linear best-fit regression analysis using Prism 5 software (GraphPad).

[2] = test system: FLT3-ITD mutant isoforms; test: Immunoblotting with anti-phospho-FLT3 / anti-FLT3 on Ba/F3 lysates (cell-based biochemical assay); settings: five AC220-resistant FLT3-ITD substitutions; 90 minutes exposure
Method: Exponentially growing Ba/F3 cells stably expressing each mutant along with a WT FLT3-ITD control were plated in RPMI medium 1640+10% FCS supplemented with kinase inhibitor at the indicated concentration. After a 90-minute incubation, the cells were washed in phosphate buffered saline (PBS) and lysed in Cell Extraction Buffer (Invitrogen) supplemented with protease and phosphatase inhibitors. The lysate was clarified by centrifugation and quantitated by BCA assay (Thermo Scientific). Protein was subjected to sodium dodecylsulfate polyacrylamide electrophoresis and transferred to nitrocellulose membranes. Immunoblotting was performed using anti-phospho-FLT3 (Cell Signaling) and anti-FLT3 S18 antibody (Santa Cruz Biotechnology).

[3] = test system: Ba/F3 cells expressing FLT3-ITD mutant isoforms; settings: literature report (ref 18); cited from earlier work

SMILES: CNC(=O)c1cc(Oc2ccc(NC(=O)Nc3ccc(Cl)c(C(F)(F)F)c3)cc2)ccn1 [sorafenib]
- resistance conferred by D835F mutation in vitro ([1]; FLT3-ITD/D835F vs FLT3-ITD): cross-resistance
- cross-resistance of AC220-resistant mutations in cell-based growth assay ([1]; five AC220-resistant FLT3-ITD substitutions): substantial cross-resistance
- cross-resistance of AC220-resistant mutations in biochemical assay (phospho-FLT3) [2]: substantial cross-resistance
- sensitivity of FLT3-ITD/D835V in vitro, previously reported [3]: retain sensitivity
